# In patent publication US9089507B2 (priority 2006, dated 2015):
# Read-outs that look alike come from different tables or passages of the source.
# How the values were obtained:
# [1] = female, CD-1, mouse, in vivo, 32 mg/kg
# in vivo = conditions: female, CD-1, mouse, 32 mg/kg
# B. anthracis = assay: microbe, parasite or virus in culture; format: cell-based, Bacillus anthracis
# B. anthracis spores = conditions: mouse, in vivo
smiles,measurement,setting,value
"CN[C@H](CC(C)C)C(=O)N[C@H]1C(=O)N[C@@H](CC(N)=O)C(=O)N[C@H]2C(=O)N[C@H]3C(=O)N[C@H](C(=O)N[C@H](C(=O)O)c4cc(O)cc(O)c4-c4cc3ccc4O)[C@H](O[C@H]3C[C@](C)(N)[C@@H](O)[C@H](C)O3)c3ccc(c(Cl)c3)Oc3cc2cc(c3O[C@@H]2O[C@H](CO)[C@@H](O)[C@H](O)[C@H]2O[C@H]2C[C@](C)(NCc3ccc(-c4ccc(Cl)cc4)cc3)[C@@H](O)[C@H](C)O2)Oc2ccc(cc2Cl)[C@H]1O [Oritavancin, N-(4-(4-chlorophenyl)benzyl)A82846B]",time-to-peak (Tmax),[1]; ip,4 h
same,time plasma concentration remained above the MIC for the Ames strain,[1]; iv,24 to 48 h
same,time-to-peak (Tmax),[1]; iv,0.25 h
same,AUC,in vivo; ip,840 µg·h/mL
same,Cmax,in vivo; ip,95 µg/mL
same,AUC,in vivo; iv,950 µg·h/mL
same,Cmax,in vivo; iv,270 µg/mL
same,MIC90 with polysorbate-80 lower than MIC90 in the absence of polysorbate-80,B. anthracis,16 fold
same,MIC90,B. anthracis; Bacillus anthracis,0.12 µg/mL
same,spore/tissue load at the termination of the study,B. anthracis spores,≤ 5×10^4 CFU/g tissue
